Reference: patent US20210395248A1, “INHIBITORS OF HUMAN IMMUNODEFICIENCY VIRUS REPLICATION” (ViiV HEALTHCARE UK (NO.5) LIMITED, priority 2018, published 2021)

Key:
[1] = tested on: recombinant NL4-3 virus (Renilla luciferase reporter) in MT-2 cells; experiment: HIV cell culture assay (antiviral activity, luciferase readout in infected MT-2 cells); assay type: cell-based; conditions: NL43
Procedure: HIV cell culture assay—MT-2 cells, 293T cells and the proviral DNA clone of NL4-3 virus were obtained from the NIH AIDS Research and Reference Reagent Program. MT-2 cells were propagated in RPMI 1640 media supplemented with 10% heat inactivated fetal bovine serum (FBS), […]. The 293T cells were propagated in DMEM media supplemented with 10% heat inactivated FBS, […]. A recombinant NL4-3 proviral clone, in which a section of the nef gene was replaced with the Renilla luciferase gene, was used to make the reference virus used in these studies. The recombinant virus was prepared through transfection of the recombinant NL4-3 proviral clone into 293T cells using Transit-293 Transfection Reagent from Mirus Bio LLC (Madison, Wis.). Supernatent was harvested after 2-3 days and the amount of virus present was titered in MT-2 cells using luciferase enzyme activity as a marker by measuring luciferase enzyme activity. Luciferase was quantitated using the EnduRen Live Cell Substrate from Promega (Madison, Wis.). Antiviral activities of compounds toward the recombinant virus were quantified by measuring luciferase activity in MT-2 cells infected for 4-5 days with the recombinant virus in the presence of serial dilutions of the compound.
The 50% effective concentration (EC50) was calculated by using the exponential form of the median effect equation where (Fa)=1/[1+(EC50/drug conc.)m] (Johnson V A, Byington RT. Infectivity Assay. In Techniques in HIV Research, ed. Aldovini A, Walker B D. 71-76. New York: Stockton Press. 1990). The 50% inhibitory concentration (EC50) was calculated by using the exponential form of the median effect equation where percent inhibition=1/[1+(EC50/drug concentration)m], where m is a parameter that reflects the slope of the concentration-response curve.

[2] = Compound cytotoxicity, XTT-based colorimetric assay; assay type: cell-based; conditions: human; uninfected MT2 cells, day 4, XTT; read-out: CC50
Procedure: Compound cytotoxicity and the corresponding CC50 values were determined using the same protocol as described in the antiviral assay except that uninfected cells were used. Cytotoxicity was assessed on day 4 in uninfected MT2 cells by using a XTT (2,3-bis [2-Methoxy-4-nitro-5-sulfophenyl]-2H-tetrazolium-5-carboxyanilide inner salt)-based colorimetric assay (Sigma-Aldrich, St Louis, Mo.).

Row | SMILES | EC50 [1] [nM] | CC50 at 4 days [2] [nM]
1 | Cn1nc(NS(C)(=O)=O)c2c(Cl)ccc(-n3c([C@H](Cc4cc(F)cc(F)c4)NC(=O)Cn4nc(C(F)F)c5c4C(F)(F)[C@@H]4C[C@H]54)nc4nc(N5CCO[C@H](C(F)(F)F)C5)ccc4c3=O)c21 (atropisomer, axis not shown; (P)) [Example 11, N—((S)-1-((3P)-3-(4-chloro-1-methyl-3-(methylsulfonamido)-1H-indazol-7-yl)-4-oxo-7-((S)-2-(trifluoromethyl)morpholino)-3,4-dihydropyrido[2,3-d]pyrimidin-2-yl)-2-(3,5-difluorophenyl)ethyl)-2-((3bS,4aR)-3-(difluoromethyl)-5,5-difluoro-3b,4,4a,5-tetrahydro-1H-cyclopropa[3,4]cyclopenta[1,2-c]pyrazol-1-yl)acetamide] | 0.019 | > 100
2 | Cn1nc(NS(C)(=O)=O)c2c(Cl)ccc(-n3c([C@H](Cc4cc(F)cc(F)c4)NC(=O)Cn4nc(C(F)F)c5c4C(F)(F)[C@@H]4C[C@H]54)nc4nc(N5CCO[C@@H](C(F)(F)F)C5)ccc4c3=O)c21 (atropisomer, axis not shown; (P)) [Example 12, N—((S)-1-((3P)-3-(4-chloro-1-methyl-3-(methylsulfonamido)-1H-indazol-7-yl)-4-oxo-7-((R)-2-(trifluoromethyl)morpholino)-3,4-dihydropyrido[2,3-d]pyrimidin-2-yl)-2-(3,5-difluorophenyl)ethyl)-2-((3bS,4aR)-3-(difluoromethyl)-5,5-difluoro-3b,4,4a,5-tetrahydro-1H-cyclopropa[3,4]cyclopenta[1,2-c]pyrazol-1-yl)acetamide] | 0.02 | > 100
3 | Cn1nc(NS(C)(=O)=O)c2c(Cl)ccc(-n3c([C@H](Cc4cc(F)cc(F)c4)NC(=O)Cn4nc(C(F)F)c5c4C(F)(F)[C@@H]4C[C@H]54)nc4nc(N(CCC(F)(F)F)C5CCC5)ccc4c3=O)c21 (atropisomer, axis not shown; (P)) [Example 13, N—((S)-1-((3P)-3-(4-chloro-1-methyl-3-(methylsulfonamido)-1H-indazol-7-yl)-7-(cyclobutyl(3,3,3-trifluoropropyl)amino)-4-oxo-3,4-dihydropyrido[2,3-d]pyrimidin-2-yl)-2-(3,5-difluorophenyl)ethyl)-2-((3bS,4aR)-3-(difluoromethyl)-5,5-difluoro-3b,4,4a,5-tetrahydro-1H-cyclopropa[3,4]cyclopenta[1,2-c]pyrazol-1-yl)acetamide] | 0.068 | > 100
4 | Cn1nc(NS(C)(=O)=O)c2c(Cl)ccc(-n3c([C@H](Cc4cc(F)cc(F)c4)NC(=O)Cn4nc(C(F)F)c5c4C(F)(F)[C@@H]4C[C@H]54)nc4nc(N(CCC(F)(F)F)CC5CC5)ccc4c3=O)c21 (atropisomer, axis not shown; (P)) [Example 14, N—((S)-1-((3P)-3-(4-chloro-1-methyl-3-(methylsulfonamido)-1H-indazol-7-yl)-7-((cyclopropylmethyl)(3,3,3-trifluoropropyl)amino)-4-oxo-3,4-dihydropyrido[2,3-d]pyrimidin-2-yl)-2-(3,5-difluorophenyl)ethyl)-2-((3bS,4aR)-3-(difluoromethyl)-5,5-difluoro-3b,4,4a,5-tetrahydro-1H-cyclopropa[3,4]cyclopenta[1,2-c]pyrazol-1-yl)acetamide] | 0.11 | > 100
5 | C[C@@H]1CN(c2ccc3c(=O)n(-c4ccc(Cl)c5c(NS(C)(=O)=O)nn(C)c45)c([C@H](Cc4cc(F)cc(F)c4)NC(=O)Cc4ccn(C5CC5)n4)nc3n2)C[C@H](C)O1 (atropisomer, axis not shown; (P)) [Example 15, N—((S)-1-((3P)-3-(4-chloro-1-methyl-3-(methylsulfonamido)-1H-indazol-7-yl)-7-((2S,6R)-2,6-dimethylmorpholino)-4-oxo-3,4-dihydropyrido[2,3-d]pyrimidin-2-yl)-2-(3,5-difluorophenyl)ethyl)-2-(1-cyclopropyl-1H-pyrazol-3-yl)acetamide] | 0.11 | > 100
6 | C[C@@H]1CN(c2ccc3c(=O)n(-c4ccc(Cl)c5c(NS(C)(=O)=O)nn(C)c45)c([C@H](Cc4cc(F)cc(F)c4)NC(=O)Cn4ccc(C5CC5)n4)nc3n2)C[C@H](C)O1 (atropisomer, axis not shown; (P)) [Example 16, N—((S)-1-((3P)-3-(4-chloro-1-methyl-3-(methylsulfonamido)-1H-indazol-7-yl)-7-((2S,6R)-2,6-dimethylmorpholino)-4-oxo-3,4-dihydropyrido[2,3-d]pyrimidin-2-yl)-2-(3,5-difluorophenyl)ethyl)-2-(3-cyclopropyl-1H-pyrazol-1-yl)acetamide] | 0.2 | > 500
7 | C[C@@H]1CN(c2ccc3c(=O)n(-c4ccc(Cl)c5c(NS(C)(=O)=O)nn(CC(F)(F)F)c45)c([C@H](Cc4cc(F)cc(F)c4)NC(=O)Cn4ccc(C5CC5)n4)nc3n2)C[C@H](C)O1 (atropisomer, axis not shown; (P)) [Example 17, N—((S)-1-((3P)-3-(4-chloro-3-(methylsulfonamido)-1-(2,2,2-trifluoroethyl)-1H-indazol-7-yl)-7-((2S,6R)-2,6-dimethylmorpholino)-4-oxo-3,4-dihydropyrido[2,3-d]pyrimidin-2-yl)-2-(3,5-difluorophenyl)ethyl)-2-(3-cyclopropyl-1H-pyrazol-1-yl)acetamide] | 0.24 | > 500
8 | CC(C)n1ccc(CC(=O)N[C@@H](Cc2cc(F)cc(F)c2)c2nc3nc(N4C[C@@H](C)O[C@@H](C)C4)ccc3c(=O)n2-c2ccc(Cl)c3c(NS(C)(=O)=O)nn(C)c23)n1 (atropisomer, axis not shown; (P)) [Example 18, N—((S)-1-((3P)-3-(4-chloro-1-methyl-3-(methylsulfonamido)-1H-indazol-7-yl)-7-((2S,6R)-2,6-dimethylmorpholino)-4-oxo-3,4-dihydropyrido[2,3-d]pyrimidin-2-yl)-2-(3,5-difluorophenyl)ethyl)-2-(1-isopropyl-1H-pyrazol-3-yl)acetamide] | 0.16 | > 100
9 | Cn1nc(NS(C)(=O)=O)c2c(Cl)ccc(-n3c([C@H](Cc4cc(F)cc(F)c4)NC(=O)Cn4nc(C(F)F)c5c4C(F)(F)[C@@H]4C[C@H]54)nc4nc(N5CCCOCC5)ccc4c3=O)c21 (atropisomer, axis not shown; (P)) [Example 22, N—((S)-1-((3P)-3-(4-chloro-1-methyl-3-(methylsulfonamido)-1H-indazol-7-yl)-7-(1,4-oxazepan-4-yl)-4-oxo-3,4-dihydropyrido[2,3-d]pyrimidin-2-yl)-2-(3,5-difluorophenyl)ethyl)-2-((3bS,4aR)-3-(difluoromethyl)-5,5-difluoro-3b,4,4a,5-tetrahydro-1H-cyclopropa[3,4]cyclopenta[1,2-c]pyrazol-1-yl)acetamide] | 0.052 | > 100
10 | Cn1nc(NS(C)(=O)=O)c2c(Cl)ccc(-n3c([C@H](Cc4cc(F)cc(F)c4)NC(=O)Cn4nc(C(F)F)c5c4C(F)(F)[C@@H]4C[C@H]54)nc4nc(N5CCOCC5)ccc4c3=O)c21 (atropisomer, axis not shown; (P)) [Example 23, N—((S)-1-((3P)-3-(4-chloro-1-methyl-3-(methylsulfonamido)-1H-indazol-7-yl)-7-morpholino-4-oxo-3,4-dihydropyrido[2,3-d]pyrimidin-2-yl)-2-(3,5-difluorophenyl)ethyl)-2-((3bS,4aR)-3-(difluoromethyl)-5,5-difluoro-3b,4,4a,5-tetrahydro-1H-cyclopropa[3,4]cyclopenta[1,2-c]pyrazol-1-yl)acetamide] | 0.058 | > 100
11 | Cn1nc(NS(C)(=O)=O)c2c(Cl)ccc(-n3c([C@H](Cc4cc(F)cc(F)c4)NC(=O)Cn4nc(C(F)F)c5c4C(F)(F)[C@@H]4C[C@H]54)nc4nc(NCCC(C)(C)F)ccc4c3=O)c21 (atropisomer, axis not shown; (P)) [Example 24, N—((S)-1-((3P)-3-(4-chloro-1-methyl-3-(methylsulfonamido)-1H-indazol-7-yl)-7-((3-fluoro-3-methylbutyl)amino)-4-oxo-3,4-dihydropyrido[2,3-d]pyrimidin-2-yl)-2-(3,5-difluorophenyl)ethyl)-2-((3bS,4aR)-3-(difluoromethyl)-5,5-difluoro-3b,4,4a,5-tetrahydro-1H-cyclopropa[3,4]cyclopenta[1,2-c]pyrazol-1-yl)acetamide] | 0.04 | > 100
